Measurements published in patent US11253500B2, “Sanfetrinem or a salt or ester thereof for use in treating mycobacterial infection” (priority 2017, dated 2022).
Converted amounts (≈) assume the structure as drawn. “And” between values parts separate entries of the source, which are not always exact repeats. Equal values may be shown once. Where a name gives a salt, the structure may show the parent alone. Read-outs that look alike come from different tables or passages of the source.

Legend:
M. tuberculosis H37Rv [1] = assay: MIC determination (extracellular, resazurin); type: cell-based, Mycobacterium tuberculosis
[2] = system: Mycobacterium tuberculosis growing inside human THP-1 monocytes; assay: Intracellular viability assay (luciferase Mtb in THP-1 monocytes); type: cell-based
M. tuberculosis H37Rv [3] = assay: In vivo anti-tubercular activity in DHP-1 KO mice; set-up: species or system Mycobacterium tuberculosis; conditions: 129sv DHP-1 KO mice; for Lung CFU: intratracheal infection, twice a day from day 9 to day 14, lungs day 15, mean, untreated 7.4 (Day 9), 9.0 (Day 15); for Effect on bacterial growth in lung: treated day 9 to day 14
Mtb H37Rv strain = assay: Checkerboard assay with rifampicin, ethambutol, delamanid and amoxicillin (384-well, MTT or ATP); type: cell-based, Mycobacterium tuberculosis; conditions: for FIC_B / MICsyn_B: Comp B in the presence of SFT; for Fold_B: MIC/MICsyn of Comp B with SFT; for MIC: Mycobacterium tuberculosis, H37RV, Comp B alone (IC90)
[4] = system: panel of twenty-three M. tuberculosis strains; assay: microbe, parasite or virus in culture; type: cell-based, Mycobacterium tuberculosis; conditions: for MIC: Mycobacterium tuberculosis
M. tuberculosis H37Rv [5] = assay: Checkerboard combination with amoxicillin and/or clavulanate (resazurin); type: cell-based, Mycobacterium tuberculosis
[6] = Mycobacterium tuberculosis, H37RV, extracellular, with 4 μg/ml potassium clavulanate, average, read-out: MIC μM (average with clav)
[7] = Mycobacterium tuberculosis, H37RV, extracellular, without clavulanate, average, read-out: MIC μM (average w/o clav)
[8] = Mycobacterium tuberculosis, w/o clav, average, read-out: MIC50 μM (average w/o clav)
[9] = Mycobacterium tuberculosis, w/o clav, average, read-out: MIC90 μM (average w/o clav)
[10] = Mycobacterium tuberculosis, with clav, average, read-out: MIC50 μM (average with clav)
[11] = Mycobacterium tuberculosis, with clav, average, read-out: MIC90 μM (average with clav)
[12] = Mycobacterium tuberculosis, with clav, separate readings, read-out: MIC90 μM (with clav)
[13] = with clav, separate readings, read-out: MIC90 μM (with clav)
[14] = Mycobacterium tuberculosis, H37RV, extracellular, with 4 μg/ml potassium clavulanate, separate readings, read-out: MIC μM (with clav)
[15] = Mycobacterium tuberculosis, H37RV, extracellular, without clavulanate, separate readings, read-out: MIC μM (w/o clav)
[16] = Mycobacterium tuberculosis, w/o clav, separate readings, read-out: MIC50 μM (w/o clav)
[17] = Mycobacterium tuberculosis, w/o clav, separate readings, read-out: MIC90 μM (w/o clav)
[18] = Mycobacterium tuberculosis, with clav, separate readings, read-out: MIC50 μM (with clav)
[19] = w/o clav, separate readings, read-out: MIC50 μM (w/o clav)
[20] = w/o clav, separate readings, read-out: MIC90 μM (w/o clav)
[21] = with clav, separate readings, read-out: MIC50 μM (with clav)
[22] = Mycobacterium tuberculosis, H37RV

Compound: CO[C@H]1CCC[C@H]2C1=C(C(=O)OC(C)OC(=O)OC1CCCCC1)N1C(=O)[C@H]([C@@H](C)O)[C@@H]21 (mixture of isomers) [Sanfetrinem cilexetil, (1S,5S,8aS,8bR)-1-(((cyclohexyloxy)carbonyl)oxy)ethyl 1-((R)-1-hydroxyethyl)-5-methoxy-2-oxo-1,2,5,6,7,8,8a,8b-octahydroazeto[2,1-a]isoindole-4-carboxylate]
- MIC (M. tuberculosis H37Rv [1]; [6]): 8.6 µM
- MIC (M. tuberculosis H37Rv [1]; [7]): 10.6 µM
- MIC50 [2, 8]: 0.85 µM (≈ 0.384 µg/mL)
- MIC90 [2, 9]: 5.2 µM (≈ 2.35 µg/mL)
- MIC50 [2, 10]: 0.6 µM (≈ 0.271 µg/mL)
- MIC90 [2, 11]: 5 µM (≈ 2.26 µg/mL)
- MIC90 [2, 12]: 4.6 µM (≈ 2.08 µg/mL)
- MIC90 [2, 13]: 5.3 µM (≈ 2.39 µg/mL)
- Lung CFU (M. tuberculosis H37Rv [3]): 7.6 log CFU
- Effect on bacterial growth in lung (M. tuberculosis H37Rv [3]): preventing bacterial growth

Compound: C[C@]1(COc2ccc(N3CCC(Oc4ccc(OC(F)(F)F)cc4)CC3)cc2)Cn2cc([N+](=O)[O-])nc2O1 [DLD, Delamanid]
- FIC_B (Mtb H37Rv strain): 0.25
- MICsyn_B (Mtb H37Rv strain): 0.0025 µM
- Fold_B (Mtb H37Rv strain): 4
- MIC (Mtb H37Rv strain): 0.01 µM

Compound: CC[C@@H](CO)NCCN[C@@H](CC)CO [EMB, Ethambutol]
- FIC_B (Mtb H37Rv strain): 0.25
- MICsyn_B (Mtb H37Rv strain): 2 µM
- Fold_B (Mtb H37Rv strain): 4
- MIC (Mtb H37Rv strain): 8 µM

Compound: C[C@@H](O)[C@H]1C(=O)N2C(C(=O)O)=C(S[C@@H]3CN[C@H](C(=O)Nc4cccc(C(=O)O)c4)C3)[C@H](C)[C@H]12 [Ertapenem]
- MIC (M. tuberculosis H37Rv [1]; [6]): 16.7 µM
- MIC (M. tuberculosis H37Rv [1]; [14]): 10 µM
- MIC (M. tuberculosis H37Rv [1]; [7]): > 80 µM
- MIC (M. tuberculosis H37Rv [1]; [15]): 80 µM
- MIC (M. tuberculosis H37Rv [1]; extracellular, with 4 μg/ml potassium clavulanate, separate readings, read-out: MIC μM (with clav)): 20 µM
- MIC50 [2, 8]: 29.6 µM (≈ 14.1 µg/mL)
- MIC90 [2, 9]: > 50 µM
- MIC50 [2, 10]: 3.84 µM (≈ 1.83 µg/mL)
- MIC90 [2, 11]: 21 µM (≈ 10 µg/mL)

Compound: C[C@@H](O)[C@H]1C(=O)N2C(C(=O)O)=C([C@H]3CCCO3)S[C@H]12 [Faropenem]
- MIC (M. tuberculosis H37Rv [1]; [6]): 8.9 µM
- MIC (M. tuberculosis H37Rv [1]; [7]): 15.7 µM
- MIC50 [2, 8]: 1.85 µM (≈ 0.528 µg/mL)
- MIC90 [2, 9]: 12.3 µM (≈ 3.52 µg/mL)
- MIC50 [2, 16]: 2.2 µM (≈ 0.628 µg/mL)
- MIC90 [2, 17]: 14.7 µM (≈ 4.19 µg/mL)
- MIC50 [2, 10]: 1.1 µM (≈ 0.314 µg/mL)
- MIC90 [2, 11]: 5.75 µM (≈ 1.64 µg/mL)
- MIC50 [2, 18]: 1 µM (≈ 0.285 µg/mL)
- MIC90 [2, 12]: 6.8 µM (≈ 1.94 µg/mL)
- MIC50 [2, 19]: 1.5 µM (≈ 0.428 µg/mL)
- MIC90 [2, 20]: 10.0 µM (≈ 2.85 µg/mL)
- MIC50 [2, 21]: 1.2 µM (≈ 0.342 µg/mL)
- MIC90 [2, 13]: 4.7 µM (≈ 1.34 µg/mL)

Compound: C[C@@H](O)[C@H]1C(=O)N2C(C(=O)O)=C(S[C@@H]3CN[C@H](C(=O)N(C)C)C3)[C@H](C)[C@H]12 [Meropenem]
- MIC (M. tuberculosis H37Rv [1]; [6]): 6.9 µM
- MIC (M. tuberculosis H37Rv [1]; [7]): 31.7 µM
- MIC50 [2, 8]: 6.78 µM (≈ 2.6 µg/mL)
- MIC90 [2, 9]: 17 µM (≈ 6.52 µg/mL)
- MIC50 [2, 16]: 8.97 µM (≈ 3.44 µg/mL)
- MIC90 [2, 17]: 19.6 µM (≈ 7.52 µg/mL)
- MIC50 [2, 10]: 1.94 µM (≈ 0.744 µg/mL)
- MIC90 [2, 11]: 5.55 µM (≈ 2.13 µg/mL)
- MIC50 [2, 18]: 2.03 µM (≈ 0.778 µg/mL)
- MIC90 [2, 12]: 5.39 µM (≈ 2.07 µg/mL)
- MIC50 [2, 19]: 4.6 µM (≈ 1.76 µg/mL)
- MIC90 [2, 20]: 14.41 µM (≈ 5.53 µg/mL)
- MIC50 [2, 21]: 1.85 µM (≈ 0.709 µg/mL)
- MIC90 [2, 13]: 5.71 µM (≈ 2.19 µg/mL)

Compound: CO[C@H]1/C=C/O[C@@]2(C)Oc3c(C)c(O)c4c(O)c(c(/C=N/N5CCN(C)CC5)c(O)c4c3C2=O)NC(=O)/C(C)=C\C=C\[C@H](C)[C@H](O)[C@@H](C)[C@@H](O)[C@@H](C)[C@H](OC(C)=O)[C@@H]1C [RIF, Rifampicin]
- MICsyn_B (Mtb H37Rv strain): 0.005 µM
- MIC (Mtb H37Rv strain): 0.04 µM

Compound: CO[C@H]1CCC[C@H]2C1=C(C(=O)O)N1C(=O)[C@H]([C@@H](C)O)[C@@H]21 [Sanfetrinem (sodium salt), sodium (1S,5S,8aS,8bR)-1-((R)-1-hydroxyethyl)-5-methoxy-2-oxo-1,2,5,6,7,8,8a,8b-octahydroazeto[2,1-a]isoindole-4-carboxylate]
- MIC (M. tuberculosis H37Rv [1]; Mycobacterium tuberculosis, H37RV, read-out: MIC μM (average w/o clav), extracellular, without clavulanate, average): 5 µM
- MIC (M. tuberculosis H37Rv [1]; Mycobacterium tuberculosis, H37RV, read-out: MIC μM (average with clav), extracellular, with 4 μg/ml potassium clavulanate, average): 2.9 µM
- MIC50 [2, 8]: 1.65 µM
- MIC90 [2, 9]: 5.57 µM
- MIC50 [2, 16]: 1.32 µM
- MIC50 [2, 10]: 1.64 µM
- MIC90 [2, 11]: 7.25 µM
- MIC90 [2, 12]: 6.13 µM
- MIC50 [2, 19]: 1.64 µM and 2 µM
- MIC90 [2, 13]: 6.8 µM and 8.82 µM
- Lung CFU (M. tuberculosis H37Rv [3]): 7.3 log CFU
- Effect on bacterial growth in lung (M. tuberculosis H37Rv [3]): preventing bacterial growth
- Sensitivity of all strains within the concentration range tested ([4]; MGIT 960, 23 strains, 0.5 to 20 μM): sensitive
- MIC ([4]; read-out: MIC, another four strains higher): > 5 µM
- MIC ([4]; read-out: MIC, four strains lower): < 5 µM
- MIC ([4]; read-out: MIC, most common value): 5 µM
- IC90 (M. tuberculosis H37Rv [5]; [22]): 1.22 µg/mL
- IC90 (M. tuberculosis H37Rv [5]; Mycobacterium tuberculosis, H37RV, read-out: IC90 of sanfetrinem in combination with amoxicillin (at 10 μg/ml)): 0.33 µg/mL
- IC90 (M. tuberculosis H37Rv [5]; Mycobacterium tuberculosis, H37RV, read-out: IC90 of sanfetrinem in combination with clavulanate): 0.55 µg/mL
- Fold_A (Mtb H37Rv strain; MIC/MICsyn of SFT with AMX): 8
- Fold_A (Mtb H37Rv strain; MIC/MICsyn of SFT with DLD): 4
- Fold_A (Mtb H37Rv strain; MIC/MICsyn of SFT with EMB): 4
- Fold_A (Mtb H37Rv strain; MIC/MICsyn of SFT with RIF): 8
- FIC_A (Mtb H37Rv strain; SFT in the presence of AMX): 0.125
- MICsyn_A (Mtb H37Rv strain; SFT in the presence of AMX): 0.5 µM
- FIC_A (Mtb H37Rv strain; SFT in the presence of DLD): 0.25
- MICsyn_A (Mtb H37Rv strain; SFT in the presence of DLD): 0.4 µM
- FIC_A (Mtb H37Rv strain; SFT in the presence of EMB): 0.25
- MICsyn_A (Mtb H37Rv strain; SFT in the presence of EMB): 0.4 µM
- FIC_A (Mtb H37Rv strain; SFT in the presence of RIF): 0.125
- MICsyn_A (Mtb H37Rv strain; SFT in the presence of RIF): 0.4 µM
- FICI (Mtb H37Rv strain; combination SFT with AMX): 0.1875
- FICI (Mtb H37Rv strain; combination SFT with DLD): 0.5
- FICI (Mtb H37Rv strain; combination SFT with EMB): 0.5
- FICI (Mtb H37Rv strain; combination SFT with RIF): 0.25

Compound: C[C@@H](O)[C@H]1C(=O)N2C(C(=O)O)=C(SC3CN(C4=NCCS4)C3)[C@H](C)[C@H]12 [Tebipenem]
- MIC (M. tuberculosis H37Rv [1]; [6]): 1.25 µM
- MIC (M. tuberculosis H37Rv [1]; [14]): 1.25 µM
- MIC (M. tuberculosis H37Rv [1]; [7]): 7.5 µM
- MIC (M. tuberculosis H37Rv [1]; [15]): 7.5 µM
- MIC50 [2, 8]: 4.51 µM (≈ 1.73 µg/mL)
- MIC90 [2, 9]: 46.5 µM (≈ 17.8 µg/mL)
- MIC50 [2, 10]: 0.49 µM (≈ 0.188 µg/mL)
- MIC90 [2, 11]: 3.61 µM (≈ 1.38 µg/mL)

Compound: CC1(C)S[C@@H]2[C@H](NC(=O)[C@H](N)c3ccc(O)cc3)C(=O)N2[C@H]1C(=O)O [amoxicillin]
- IC80 (M. tuberculosis H37Rv [5]; [22]): 42 µg/mL
- Reaching 90% Inhibition (M. tuberculosis H37Rv [5]; amoxicillin in monotherapy): does not reach a 90% Inhibition
- Reaching 90% growth inhibition (M. tuberculosis H37Rv [5]; in combination with clavulanate): nor in combination with clavulanate reach the 90% growth inhibition
- MICsyn_B (Mtb H37Rv strain): 8 µM
- MIC (Mtb H37Rv strain): 128 µM

Compound: O=C(O)[C@H]1/C(=C/CO)O[C@@H]2CC(=O)N21 [clavulanate, Potassium clavulanate]
- Activity alone (M. tuberculosis H37Rv [5]; alone): not active
